The experiment has as its system P388 leukemia ip, CD2F1 mice, survival T/C. As to the kind of experiment: NCI In Vivo Anticancer Drug Screen. Data for tumor model P388 Leukemia (intraperitoneal) in CD2F1 (CDF1) mice. The conditions noted are these: endpoint: median survival time, higher = longer survival. The gist of the method:
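Mice carrying the transplanted tumor received test compound or vehicle. Survival was recorded in each group, and the value is the treated-group measurement divided by that of the vehicle-treated control group.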

Setting [1] is: dose: 50.0 mg/kg/injection, schedule: Q01DX005 (ip), vehicle: saline with Tween-80.
The mark [2] stands for this setting: dose: 50.0 mg/kg/injection, schedule: Q01DX009 (ip), vehicle: saline with Tween-80.
The mark [3] stands for this setting: dose: 100.0 mg/kg/injection, schedule: Q01DX009 (ip), vehicle: saline with Tween-80.
The mark [4] stands for this setting: dose: 200.0 mg/kg/injection, schedule: Q01DX009 (ip), vehicle: saline with Tween-80.
[5] abbreviates: dose: 100.0 mg/kg/injection, schedule: Q01DX005 (ip), vehicle: saline with Tween-80.
[6] abbreviates: dose: 200.0 mg/kg/injection, schedule: Q01DX005 (ip), vehicle: saline with Tween-80.
Where [7] appears, read: dose: 60.0 mg/kg/injection, schedule: Q01DX005 (ip), vehicle: saline with Tween-80.
Setting [8] is: dose: 100.0 mg/kg/injection, schedule: Q04DX003 (ip), vehicle: saline with Tween-80.
The mark [9] stands for this setting: dose: 200.0 mg/kg/injection, schedule: Q04DX003 (ip), vehicle: saline with Tween-80.
[10] abbreviates: dose: 120.0 mg/kg/injection, schedule: Q01DX005 (ip), vehicle: saline with Tween-80.

Several values for one entry are separate records, joined by “and”; a condition that tells them apart may be missing. Equal values may be shown once. Inconclusive results and toxic doses are left out.

Turning to `CC(=O)CC(=O)c1ccc(C)cc1.CC(=O)CC(=O)c1ccc(C)cc1.[Ni]`, the T/C (dose: 3.12 mg/kg/injection, schedule: Q01DX005 (ip), vehicle: saline with Tween-80) was 97 % of control; the T/C (dose: 6.25 mg/kg/injection, schedule: Q01DX005 (ip), vehicle: saline with Tween-80) was 95 % of control; the T/C (dose: 12.5 mg/kg/injection, schedule: Q01DX005 (ip), vehicle: saline with Tween-80) was 90 % of control; the T/C (dose: 25.0 mg/kg/injection, schedule: Q04DX002 (ip), vehicle: saline with Tween-80) was 95 % of control; the T/C (dose: 25.0 mg/kg/injection, schedule: Q04DX003 (ip), vehicle: saline with Tween-80) was 97 % of control; the T/C under setting [1] was 91 % of control. In addition, the T/C (dose: 50.0 mg/kg/injection, schedule: Q04DX002 (ip), vehicle: saline with Tween-80) is 99 % of control; the T/C (dose: 50.0 mg/kg/injection, schedule: Q04DX003 (ip), vehicle: saline with Tween-80) is 101 % of control; the T/C (dose: 100.0 mg/kg/injection, schedule: Q04DX002 (ip), vehicle: saline with Tween-80) is 105 % of control; the T/C (dose: 200.0 mg/kg/injection, schedule: Q04DX002 (ip), vehicle: saline with Tween-80) was 98 % of control.

For `CCOC1(OCC)CC(c2ccccc2)c2cnn(-c3ccccc3)c2O1` (centres undefined), the T/C is 92 % of control (dose: 60.0 mg/kg/injection, schedule: Q01DX005 (ip), vehicle: Klucel (hydroxypropylcellulose) (HPC)); 93 % of control (dose: 120.0 mg/kg/injection, schedule: Q01DX005 (ip), vehicle: Klucel (hydroxypropylcellulose) (HPC)); 87 % of control (dose: 240.0 mg/kg/injection, schedule: Q01DX005 (ip), vehicle: Klucel (hydroxypropylcellulose) (HPC)).

For `COc1cc(C)ccc1C1OC(=O)c2c1ccc(OC)c2OC` (centres undefined), the T/C was 106 % of control (dose: 25.0 mg/kg/injection, schedule: Q01DX009 (ip), vehicle: saline with Tween-80); 101 % of control under setting [2]; 97 % of control under setting [3]; 108 % of control under setting [4].

For the compound `CC(c1ccc2c(c1)CCC1C2C2OC2C2(O)CC=CC(=O)C12C)C1CC2(C)OC2(C)C(O)O1` (centres undefined), the T/C was 113 % of control (dose: 3.0 mg/kg/injection, schedule: Q01DX009 (ip), vehicle: saline with Tween-80); 100 % of control (dose: 6.0 mg/kg/injection, schedule: Q01DX009 (ip), vehicle: saline with Tween-80); 109 % of control (dose: 12.0 mg/kg/injection, schedule: Q01DX009 (ip), vehicle: saline with Tween-80); 107 % of control (dose: 24.0 mg/kg/injection, schedule: Q01DX009 (ip), vehicle: saline with Tween-80); 102 % of control (dose: 48.0 mg/kg/injection, schedule: Q01DX009 (ip), vehicle: saline with Tween-80).

In the case of `Cc1[nH]ccc2c(C)c3nc4ccc(O)cc4c3cc12`, the T/C (dose: 40.0 mg/kg/injection, schedule: Q04DX002 (ip), vehicle: water) was 157 % of control.

For `CC([NH-])C(C)[NH-].[Cl][Pt+2][Cl]` (centres undefined), the T/C reads like this: (dose: 3.12 mg/kg/injection, schedule: Q01DX001 (ip), vehicle: Klucel (hydroxypropylcellulose) (HPC)) 119 % of control; (dose: 12.5 mg/kg/injection, schedule: Q01DX001 (ip), vehicle: Klucel (hydroxypropylcellulose) (HPC)) 153 % of control and 154 % of control; (dose: 25.0 mg/kg/injection, schedule: Q01DX001 (ip), vehicle: Klucel (hydroxypropylcellulose) (HPC)) 184 % of control.

For the compound `C[C@@H]1C[C@@H]2c3cccc4c3c(cn4C)C[C@H]2N(C)C1`, the T/C reads like this: under setting [1], 104 % of control; under setting [5], 107 % of control; under setting [6], 104 % of control.

Turning to `Cn1c(NC(=O)C(F)(F)F)cc(=O)n(C)c1=O`, the T/C is 102 % of control under setting [1], 95 % of control under setting [5] and 101 % of control under setting [6].

For the compound `CNC(=O)OCc1c(COC(=O)NC)c(-c2ccc(Cl)cc2)n(C)c1-c1ccccc1`, the T/C is 154 % of control (dose: 12.5 mg/kg/injection, schedule: Q01DX009 (ip), vehicle: distilled water + Tween-80); 157 % of control and 172 % of control (dose: 25.0 mg/kg/injection, schedule: Q01DX009 (ip), vehicle: distilled water + Tween-80); 181 % of control (dose: 50.0 mg/kg/injection, schedule: Q01DX009 (ip), vehicle: distilled water + Tween-80).

Take `[Zn].c1c[nH]cn1.c1c[nH]cn1.c1c[nH]cn1.c1c[nH]cn1`: the T/C is 107 % of control and 109 % of control (dose: 25.0 mg/kg/injection, schedule: Q01DX005 (ip), vehicle: saline with Tween-80); 106 % of control and 110 % of control and 115 % of control under setting [1].

With `COc1cc(O)c2c(c1)C(=O)C1=C(C2=O)[C@@H](C)OC(C)C1` (some centres undefined), the T/C is 94 % of control (dose: 15.0 mg/kg/injection, schedule: Q01DX005 (ip), vehicle: saline with Tween-80); 96 % of control (dose: 30.0 mg/kg/injection, schedule: Q01DX005 (ip), vehicle: saline with Tween-80); 88 % of control and 94 % of control under setting [7].

As to `COc1ccc(S(=O)(=O)N/N=C/c2cc(I)cc([N+](=O)[O-])c2O)cc1`, the T/C by setting is: under setting [1], 102 % of control; under setting [5], 100 % of control; under setting [6], 104 % of control.

With `C[C@@]1(O)CC[C@@]23OC(=O)CC2C[C@@H]1O3` (some centres undefined), the T/C reads like this: (dose: 100.0 mg/kg/injection, schedule: Q01DX001 (ip), vehicle: saline) 102 % of control; (dose: 200.0 mg/kg/injection, schedule: Q01DX001 (ip), vehicle: saline) 98 % of control; (dose: 400.0 mg/kg/injection, schedule: Q01DX001 (ip), vehicle: saline) 104 % of control.

Consider `C=C(Cl)C(=NC1CCCCC1)NC(C)(C)C`, for which the T/C was 97 % of control (dose: 0.79 mg/kg/injection, schedule: Q01DX005 (ip), vehicle: Klucel (hydroxypropylcellulose) (HPC)); 101 % of control and 107 % of control (dose: 1.56 mg/kg/injection, schedule: Q01DX005 (ip), vehicle: Klucel (hydroxypropylcellulose) (HPC)); 104 % of control and 107 % of control and 109 % of control (dose: 3.12 mg/kg/injection, schedule: Q01DX005 (ip), vehicle: Klucel (hydroxypropylcellulose) (HPC)); 116 % of control (dose: 6.25 mg/kg/injection, schedule: Q01DX005 (ip), vehicle: Klucel (hydroxypropylcellulose) (HPC)); 110 % of control (dose: 12.5 mg/kg/injection, schedule: Q01DX005 (ip), vehicle: Klucel (hydroxypropylcellulose) (HPC)).

Turning to `Nc1ccc(C(=O)Oc2ccc([N+](=O)[O-])cc2)cc1`, the T/C was 95 % of control under setting [8] and 90 % of control under setting [9].

Regarding `NC(=S)N/N=C/c1ccccc1`, the T/C (dose: 12.5 mg/kg/injection, schedule: Q04DX003 (ip), vehicle: Klucel (hydroxypropylcellulose) (HPC)) is 116 % of control and the T/C (dose: 25.0 mg/kg/injection, schedule: Q04DX003 (ip), vehicle: Klucel (hydroxypropylcellulose) (HPC)) was 109 % of control.

As for `CCOC(=O)N(C)O`, the T/C runs as follows: under setting [1], 105 % of control; under setting [5], 107 % of control; under setting [6], 100 % of control; (dose: 400.0 mg/kg/injection, schedule: Q01DX005 (ip), vehicle: saline with Tween-80) 100 % of control.

As for `c1ccc(Cc2ccccc2)cc1`, the T/C under setting [2] was 105 % of control, the T/C under setting [3] was 110 % of control and the T/C under setting [4] is 109 % of control.

In the case of `CC(C)(Br)C(=O)/C=C/c1ccccc1`, the T/C runs as follows: under setting [7], 105 % of control; under setting [10], 115 % of control.

Turning to `CCCCCCCC(=O)Nc1cccc(C)c1C`, the T/C is, setting by setting: under setting [8], 90 % of control; under setting [9], 95 % of control.

On to `CC1C=CC(c2ccccc2)C2C(=O)OC(=O)C12` (centres undefined), for which the T/C was 116 % of control under setting [7] and 114 % of control under setting [10].

Take `O=c1ccc2cc3c(c(O)c2o1)OC=CC3`: the T/C was 98 % of control (dose: 50.0 mg/kg/injection, schedule: Q01DX009 (ip), vehicle: Klucel (hydroxypropylcellulose) (HPC)) and 94 % of control (dose: 100.0 mg/kg/injection, schedule: Q01DX009 (ip), vehicle: Klucel (hydroxypropylcellulose) (HPC)).

For the compound `CC12Cc3cnoc3C=C1CCC1C2CCC2(C)C1CCC2(C)O` (centres undefined), the T/C under setting [1] is 93 % of control and the T/C under setting [5] is 86 % of control.

On to `O=NNc1ccc(Sc2ccccc2)cn1`, for which the T/C was 153 % of control (dose: 6.25 mg/kg/injection, schedule: Q01DX009 (ip), vehicle: saline); 88 % of control and 90 % of control (dose: 12.5 mg/kg/injection, schedule: Q01DX009 (ip), vehicle: saline).

The values above are taken from PubChem BioAssay AID330 (DTP/NCI, 2004).
